Assay results reported in the supplement of paper PMC10307832.

Experiments:
Assay in all cases: relative viability (nuclei count vs DMSO), 5 days (fraction); higher = more cells survive
[1] = compound: CC1CC(=O)N(C2=CN=C(N=C2N1C3CCCC3)NC4=C(C=C(C=C4)C(=O)NC5CCN(CC5)C)OC)C [NPK76-II-72-1] + COc1cc2c(Oc3ccc(NC(=O)C4(C(=O)Nc5ccc(F)cc5)CC4)cc3F)ccnc2cc1OCCCN1CCOCC1 [Foretinib] (partner 0.25 µM)
How it was run: (§1)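 Relative viability divides the nuclei count in treated wells by that in vehicle wells. Lung cancer cell lines were seeded in 1536-well plates, dosed by pin tool the next day, and fixed and stained after 5 days in one step with final 0.05% Triton X-100, 1% formaldehyde and 1 ug/ml Hoechst. Dosing was a single drug or a fixed anchor-drug dose plus five library-drug doses (not always all listed) in √10 steps, and values are medians of duplicate plates imaged at 4×.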

[2] = compound: CC1CC(=O)N(C2=CN=C(N=C2N1C3CCCC3)NC4=C(C=C(C=C4)C(=O)NC5CCN(CC5)C)OC)C [NPK76-II-72-1] + O=C(CCCCCCC(=O)Nc1ccccc1)NO [Vorinostat] (partner 1 µM)
How it was run: as §1

BI-2536 + Trametinib = compound: CC[C@@H]1C(=O)N(C)c2cnc(Nc3ccc(C(=O)NC4CCN(C)CC4)cc3OC)nc2N1C1CCCC1 [BI-2536] + CC(=O)Nc1cccc(-n2c(=O)n(C3CC3)c(=O)c3c(Nc4ccc(I)cc4F)n(C)c(=O)c(C)c32)c1 [Trametinib] (partner 0.02 µM)
How it was run: as §1

BI-2536 + Navitoclax = compound: CC[C@@H]1C(=O)N(C)c2cnc(Nc3ccc(C(=O)NC4CCN(C)CC4)cc3OC)nc2N1C1CCCC1 [BI-2536] + CC1(C)CCC(c2ccc(Cl)cc2)=C(CN2CCN(c3ccc(C(=O)NS(=O)(=O)c4ccc(N[C@H](CCN5CCOCC5)CSc5ccccc5)c(S(=O)(=O)C(F)(F)F)c4)cc3)CC2)C1 [Navitoclax] (partner 0.5 µM)
How it was run: as §1

Cell Line	relative viability ([1]; first compound 0.01 µM)	relative viability ([1]; first compound 0.03162 µM)	relative viability ([1]; first compound 0.1 µM)	relative viability ([1]; first compound 0.3162 µM)	relative viability ([1]; first compound 1 µM)	relative viability ([2]; first compound 0.01 µM)	relative viability ([2]; first compound 0.03162 µM)	relative viability ([2]; first compound 0.1 µM)	relative viability ([2]; first compound 0.3162 µM)	relative viability ([2]; first compound 1 µM)	relative viability (BI-2536 + Trametinib; first compound 0.01 µM)	relative viability (BI-2536 + Trametinib; first compound 0.03162 µM)	relative viability (BI-2536 + Trametinib; first compound 0.1 µM)	relative viability (BI-2536 + Trametinib; first compound 0.3162 µM)	relative viability (BI-2536 + Trametinib; first compound 1 µM)	relative viability (BI-2536 + Navitoclax; first compound 0.01 µM)	relative viability (BI-2536 + Navitoclax; first compound 0.03162 µM)	relative viability (BI-2536 + Navitoclax; first compound 0.1 µM)	relative viability (BI-2536 + Navitoclax; first compound 0.3162 µM)	relative viability (BI-2536 + Navitoclax; first compound 1 µM)
201T	1.06	1.12	1.15	1.06	1.27	0.803	0.989	0.93	0.962	1.14	0.717	0.741	0.745	0.253	0.252	1.18	1.16	1.21	0.939	0.33
A549	0.937	0.979	0.93	0.856	1.05											1.38	1.07	0.0366	0.0423	0.0248
A-427	0.923	1.04	1.08	1.14	1.07	0.824	0.856	0.877	0.855	0.883	0.733	0.662	0.605	0.184	0.189	0.961	0.979	0.941	0.284	0.165
ABC-1	1.06	1.12	0.799	1.08	1.17	1	1.13	0.356	1.36	1.07										
BEN	0.676	0.526	0.748	0.657	0.635	0.61	0.711	0.598	0.591	0.636	1.05	0.813	0.959	0.515	0.435	0.0623	0.0739	0.0643	0.0627	0.0546
CAL-12T	1.11	1.18	1.03	1.1	1.3	0.532	0.798	0.687	0.812	0.688	0.344	0.338	0.383	0.147	0.157	1.22	1.17	0.834	0.164	0.144
COR-L23	0.915	0.977	1.01	0.9	0.979	0.408	0.519	0.408	0.427	0.48	0.579	0.582	0.394	0.0573	0.0949	0.883	0.792	0.358	0.0817	0.0706
COR-L 105	0.865	1.25	1.06	1.03	0.89	0.747	0.807	0.832	0.82	0.989	0.463	0.454	0.394	0.267	0.297	0.671	0.757	0.491	0.311	0.271
Calu-6	0.833	0.991	0.772	0.823	0.913											0.825	0.397	0.106	0.0854	0.0728
